Source: ChEMBL document CHEMBL5505975, “Design, synthesis and biological evaluation of CDC20 inhibitors for treatment of triple-negative breast cancer” (Eur J Med Chem, 2024)

Key:
[1] = test system: MCF7; test: Antiproliferative activity against human MCF7 cells assessed as reduction in cell viability incubated for 96 hrs by MTT assay; details: MCF7, 96 h
[2] = test system: MDA-MB-231; test: Antiproliferative activity against human MDA-MB-231 cells assessed as reduction in cell viability incubated for 96 hrs by MTT assay; details: MDA-MB-231, 96 h
[3] = test system: A549; test: Antiproliferative activity against human A549 cells assessed as reduction in cell viability incubated for 96 hrs by MTT assay; details: A549, 96 h
[4] = test system: MDA-MB-468; test: Antiproliferative activity against human MDA-MB-468 cells assessed as reduction in cell viability incubated for 96 hrs by MTT assay; details: MDA-MB-468, 96 h
[5] = Cytotoxicity against human L02 cells assessed as reduction in cell viability incubated for 96 hrs by MTT assay; type: toxicity, cell-based
[6] = biological target: Cell division cycle protein 20 homolog (Homo sapiens, UniProt Q12834); test: Binding affinity human CDC20 assessed as dissociation constant by SPR analysis
Sequence of Cell division cycle protein 20 homolog (Q12834 whole entry): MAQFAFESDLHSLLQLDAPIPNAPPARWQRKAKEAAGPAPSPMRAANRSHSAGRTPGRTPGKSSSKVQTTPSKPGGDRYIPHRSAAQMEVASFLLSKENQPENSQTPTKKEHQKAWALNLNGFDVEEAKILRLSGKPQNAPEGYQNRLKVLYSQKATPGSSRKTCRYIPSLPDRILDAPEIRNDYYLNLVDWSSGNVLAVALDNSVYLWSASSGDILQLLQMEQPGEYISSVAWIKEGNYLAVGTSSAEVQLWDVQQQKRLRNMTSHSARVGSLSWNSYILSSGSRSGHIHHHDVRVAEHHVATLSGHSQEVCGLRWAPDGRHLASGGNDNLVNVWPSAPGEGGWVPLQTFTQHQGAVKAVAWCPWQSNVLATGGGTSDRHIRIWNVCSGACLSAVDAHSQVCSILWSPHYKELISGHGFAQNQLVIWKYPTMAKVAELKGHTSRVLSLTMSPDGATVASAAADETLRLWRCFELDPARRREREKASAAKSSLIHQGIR

[7] = test system: MDA-MB-231; test: Cell cycle arrest in human MDA-MB-231 cells assessed as G1 phase cells at 100 uM incubated for 24 hrs by PI staining based flow cytometric analysis (reference value: 51.5%); type: functional
[8] = test system: MDA-MB-231; test: Cell cycle arrest in human MDA-MB-231 cells assessed as S phase cells at 100 uM incubated for 24 hrs by PI staining based flow cytometric analysis (reference value: 29.9%); type: functional
[9] = test system: MDA-MB-231; test: Cell cycle arrest in human MDA-MB-231 cells assessed as G2 phase cells at 100 uM incubated for 24 hrs by PI staining based flow cytometric analysis (reference value: 18.6%); type: functional
[10] = test system: MDA-MB-231; test: Cell cycle arrest in human MDA-MB-231 cells assessed as G1 phase cells at 100 uM incubated for 48 hrs by PI staining based flow cytometric analysis (reference value: 51.5%); type: functional
[11] = test system: MDA-MB-231; test: Cell cycle arrest in human MDA-MB-231 cells assessed as S phase cells at 100 uM incubated for 48 hrs by PI staining based flow cytometric analysis (reference value: 29.9%); type: functional
[12] = test system: MDA-MB-231; test: Cell cycle arrest in human MDA-MB-231 cells assessed as G2 phase cells at 100 uM incubated for 48 hrs by PI staining based flow cytometric analysis (reference value: 18.6%); type: functional
[13] = test system: MDA-MB-231; test: Cell cycle arrest in human MDA-MB-231 cells assessed as G1 phase cells at 100 uM incubated for 72 hrs by PI staining based flow cytometric analysis (reference value: 51.5%); type: functional
[14] = test system: MDA-MB-231; test: Cell cycle arrest in human MDA-MB-231 cells assessed as S phase cells at 100 uM incubated for 72 hrs by PI staining based flow cytometric analysis (reference value: 29.9%); type: functional
[15] = test system: MDA-MB-231; test: Cell cycle arrest in human MDA-MB-231 cells assessed as G2 phase cells at 100 uM incubated for 72 hrs by PI staining based flow cytometric analysis (reference value: 18.6%); type: functional
[16] = test system: MDA-MB-231; test: Cell cycle arrest in human MDA-MB-231 cells assessed as G1 phase cells at 100 uM incubated for 48 hrs by PI staining based flow cytometric analysis (reference value: 76.7%); type: functional
[17] = test system: MDA-MB-231; test: Cell cycle arrest in human MDA-MB-231 cells assessed as S phase cells at 100 uM incubated for 48 hrs by PI staining based flow cytometric analysis (reference value: 16.0%); type: functional
[18] = test system: MDA-MB-231; test: Cell cycle arrest in human MDA-MB-231 cells assessed as G2 phase cells at 100 uM incubated for 48 hrs by PI staining based flow cytometric analysis (reference value: 7.3%); type: functional
[19] = test system: MDA-MB-231; test: Induction of apoptosis in human MDA-MB-231 cells assessed as viable cells at 100 uM incubated for 48 hrs by Annexin V-FITC/PI staining based flow cytometric analysis (reference value: 95.10%); type: functional; details: read-out: Activity
[20] = test system: MDA-MB-231; test: Induction of apoptosis in human MDA-MB-231 cells assessed as early apoptotic cells at 100 uM incubated for 48 hrs by Annexin V-FITC/PI staining based flow cytometric analysis (reference value: 2.25 %); type: functional
[21] = test system: MDA-MB-231; test: Induction of apoptosis in human MDA-MB-231 cells assessed as late apoptotic cells at 100 uM incubated for 48 hrs by Annexin V-FITC/PI staining based flow cytometric analysis (reference value: 1.06%); type: functional
[22] = test system: MDA-MB-231; test: Induction of apoptosis in human MDA-MB-231 cells assessed as necrotic cells at 100 uM incubated for 48 hrs by Annexin V-FITC/PI staining based flow cytometric analysis (reference value: 1.63%); type: functional

## Cc1ncc([N+](=O)[O-])n1CCOC(=O)NC(Nc1ncccn1)C(Cl)(Cl)Cl (configuration not stated)
[1]
  IC50: 109 µM
[2]
  IC50: 139 µM
[3]
  IC50: 114 µM
[4]
  IC50: 83.4 µM
[5]
  IC50 at 96 h: > 200 µM
[6]
  Kd: 172 µM
[7]
  Activity: 28.8%
[8]
  Activity: 45.1%
[9]
  Activity: 26.1%
[10]
  Activity: 48.8%
[11]
  Activity: 23.5%
[12]
  Activity: 27.7%
[13]
  Activity: 39.2%
[14]
  Activity: 24.6%
[15]
  Activity: 36.2%
[16]
  Activity: 50.3%
[17]
  Activity: 38%
[18]
  Activity: 11.7%
[19]
  viability at 100 µM: 91.2%
[20]
  Activity: 3.22%
[21]
  Activity: 3.12%
[22]
  Activity: 2.43%
